From article PMC10778824, “New Chalcone Derivatives Containing 2,4-Dichlorobenzenesulfonamide Moiety with Anticancer and Antioxidant Properties” (International Journal of Molecular Sciences, 2023)
Converted amounts (≈) assume the structure as drawn.

Experiments:
[1] = test system: Salmonella enterica ATCC13076; test: MIC determination; format: cell-based; conditions: 37 °C, 48 h
Protocol: (§1) The MIC determinations for Staphylococcus epidermidis ATCC14990, Staphylococcus aureus ATCC6538, Enterococcus faecalis ATCC51299, Klebsiella pneumoniae ATCC13883, Escherichia coli ATCC8739, Salmonella enterica ATCC13076, Helicobacter pylori ATCC43504, Campylobacter jejuni ZMF, Campylobacter coli ZMF, Bacillus cereus PCM 1948,2019 (ATCC11778), and Listeria monocytogenes PCM2191 were performed based on the methodology described by Krauze-Baranowska et al.. The procedure for H. pylori was used in the experiments with Campylobacter strains, and the procedure for B. subtilis was used in the experiments with L. monocytogenes and B. cereus. The tested samples were dissolved in DMSO and diluted with water (concentration of approximately 500 μg/mL). The solutions were diluted geometrically by transferring the mixture/dilution (100 μL) from the first to the twelfth well of the microtiter plate. The final concentrations of samples used for antimicrobial effects ranged from 500 to 0.006 µg/mL. Ampicillin was used as a reference compound in the concentration range of 128 to 0.0625 µg/mL. The tests were incubated at 37 °C for 48 h. The diluent concentration had no effect on the activity of the tested compounds. All experiments were performed in triplicate.

[2] = test system: Staphylococcus aureus ATCC6538; test: MIC determination; format: cell-based; conditions: 37 °C, 48 h
Protocol: as §1

[3] = test system: Campylobacter coli ZMF; test: MIC determination; format: cell-based; conditions: 37 °C, 48 h
Protocol: as §1

[4] = test system: Escherichia coli ATCC8739; test: MIC determination; format: cell-based; conditions: 37 °C, 48 h
Protocol: as §1

[5] = test system: Listeria monocytogenes PCM2191; test: MIC determination; format: cell-based; conditions: 37 °C, 48 h
Protocol: as §1

[6] = test system: Klebsiella pneumoniae ATCC13883; test: MIC determination; format: cell-based; conditions: 37 °C, 48 h
Protocol: as §1

[7] = test system: Helicobacter pylori ATCC43504; test: MIC determination; format: cell-based; conditions: 37 °C, 48 h
Protocol: as §1

[8] = test system: Enterococcus faecalis ATCC51299; test: MIC determination; format: cell-based; conditions: 37 °C, 48 h
Protocol: as §1

[9] = test system: Bacillus cereus PCM 1948,2019 (ATCC11778); test: MIC determination; format: cell-based; conditions: 37 °C, 48 h
Protocol: as §1

[10] = test system: Staphylococcus epidermidis ATCC14990; test: MIC determination; format: cell-based; conditions: 37 °C, 48 h
Protocol: as §1

[11] = test system: Campylobacter jejuni ZMF; test: MIC determination; format: cell-based; conditions: 37 °C, 48 h
Protocol: as §1

[12] = test system: gastric adenocarcinoma AGS; test: MTT assay, AGS cells; format: cell-based, human; conditions: for IC50: Homo sapiens, AGS, 24 h; for selectivity index AGS: SI = IC50 noncancer cells/IC50 cancer cells, in relation to human neonatal fibroblasts
Protocol: (§2) The human gastric adenocarcinoma AGS, cervical cancer HeLa, and acute promyelocytic leukemia HL-60 cells were obtained from the American Type Culture Collection (ATCC, Manassas, VA, USA). Human neonatal fibroblasts were obtained from LGC Standards (Luckenwalde, Germany). The HeLa and AGS lines were cultured in Dulbecco’s modified Eagle’s medium (DMEM) and DMEM/F12 medium, respectively. The HL-60 line was maintained in RPMI-1640 medium. Fibroblasts were cultured in Fibroblast Growth Medium with Supplement Mix. All the media were supplemented with 100 units/mL of penicillin, 100 µg/mL of streptomycin, and 10% (v/v) fetal bovine serum (FBS) (Merck Millipore, Burlington, MA, USA). The cells were incubated at 37 °C and 5% CO2.
(§3) To estimate the cytotoxic effect of the five compounds (4–8), MTT (3-(4,5-dimethylthiazol-2-yl)-2,5-diphenyltetrazolium bromide) assay was used. Oxaliplatin was used as a positive control in this test. All the cell lines were seeded in 96-well plates at a density of 5 × 10^3 cells/well and treated for 24 h with the compounds at concentrations of 0.5–40 µg/mL. Oxaliplatin was tested in the range of 20–400 µg/mL (50–1000 µM). After treatment, the cells were incubated with MTT (0.5 mg/mL; Merck Millipore, Burlington, MA, USA) for 3 h. Then, DMSO was used to dissolve formazan crystals, and the absorbance of the formazan solution was measured with a plate reader (Epoch, BioTek Instruments, Santa Clara, CA, USA). All the results (±standard deviation (SD)) were obtained from six repetitions in at least two independent experiments. The data are expressed as IC50 values (µg/mL).

[13] = test system: human neonatal fibroblasts; test: MTT assay, noncancerous fibroblasts; format: cell-based; conditions: 24 h treatment; for IC50: Homo sapiens, Fibroblast
Protocol: as §2, §3

[14] = test system: cervical cancer HeLa; test: MTT assay, HeLa cells; format: cell-based, human; conditions: for IC50: Homo sapiens, HeLa; for selectivity index HeLa: SI = IC50 noncancer cells/IC50 cancer cells, in relation to human neonatal fibroblasts
Protocol: as §2, §3

[15] = biological target: T1, neutrophil elastase (Sus scrofa, UniProt P00772); test: Elastase assay (SANA substrate); format: biochemical, porcine; conditions: Tris-HCl pH 8.0, SANA substrate; read-out: neutrophil elastase inhibition IC50 (converted)
T1 construct: purchased Sigma Chemical Co. (St. Louis, MO, USA)
Protocol: The elastase analysis was performed according to the spectrophotometric method with oleanolic acid as a reference. The reaction mixture (Tris-HCl buffer (pH 8.0), 1.0 μg/mL porcine pancreatic elastase, and different concentrations of chalcone derivatives was preincubated at room temperature for 15 min. Afterwards, the addition of the substrate—SANA—started the reaction. Product formation changes were analyzed at λ = 410 nm for 20 min every 20 s (Epoch, BioTek Instruments, Santa Clara, CA, USA). The control was composed of Tris-HCl buffer (pH 8.0), an appropriate concentration of the chalcone derivative, and SANA.

[16] = DPPH radical scavenging assay; conditions: concentration of 800 µg/mL
Protocol: The DPPH radical scavenging assay of samples (ligands or complexes) was performed with ascorbic acid as a standard. Different concentrations of chalcone derivatives, dissolved in DMSO, were mixed with the same amount of 0.06 mM DPPH methanolic solution and incubated at room temperature in the dark for 30 min. The absorbance was analyzed at λ = 517 nm using a 96-well microplate reader (Epoch, BioTek System, Winooski, VT, USA). The control was composed of DPPH and DMSO. DPPH inhibition was calculated according to the following Formula (2):DPPH Inhibition (%) = [(Acontrol − Asample)/Acontrol] × 100%(2)

[17] = test system: acute promyelocytic leukemia HL-60; test: MTT assay, HL-60 cells; format: cell-based, human; conditions: for IC50: Homo sapiens, HL-60, 24 h; for selectivity index HL-60: SI = IC50 noncancer cells/IC50 cancer cells, in relation to human neonatal fibroblasts
Protocol: as §2, §3

[18] = test system: cancer cells (HeLa, HL-60, AGS); test: MTT assay, cancer cells taken together; format: cell-based, human; conditions: HL-60 and AGS together
Protocol: as §2, §3

[19] = β-Carotene bleaching test; conditions: compared to ascorbic acid
Protocol: β-Carotene bleaching test was based on the method described by Olszowy et al. with some modifications. First, 1 mg of β-carotene was dissolved in 5 mL of chloroform. Afterwards, […] of linoleic acid and 200 mg of Tween 40 were added. The chloroform was evaporated, and 50 mL of oxygenized water was added. The created emulsion was mixed with different concentrations of chalcone derivatives. β-carotene bleaching was analyzed at λ = 492 nm before (t = 0 min) and after 90 min (t = 90 min) of incubation at 50 °C (Epoch, BioTek Instruments, Santa Clara, CA, USA). Ascorbic acid was used as a standard. The control was composed of emulsion and DMSO.
The results were calculated according to the following Formula (4):[(AsampleT0 − AsampleT90)/(AcontrolT0 − AcontrolT90) × 100%(4)

[20] = test system: caspase-9; test: Caspase-Glo 9 activity assay in AGS cells; format: cell-based, human; conditions: 20 µg/mL
Protocol: (§4) The AGS cells were seeded in a 96-well plate (5 × 10^3 cells/well) and treated with compound 5 at concentrations of 1, 5, 7, and 10 µg/mL for 24 h; oxaliplatin at the concentration of 20 µg/mL; and DMSO (1%, v/v). The cells were then treated with reagents from Caspase-Glo 8 Assay or Caspase-Glo 9 Assay (Promega, Madison, WI, USA) and measured with the luminometer Glomax Multi + Detection System (Promega, Madison, WI, USA). The experiments were performed in two independent repeats in three repetitions.

[21] = test system: AGS cells; test: Cell cycle analysis (propidium iodide); format: cell-based, human; conditions: 40 µg/mL
Protocol: The AGS cells were seeded in a 6-well plate (5 × 10^5 cells/well) and incubated with compound 5 at concentrations of 1, 5, and 10 µg/mL for 48 h; oxaliplatin at the concentration of 40 µg/mL; and DMSO (0.2%, v/v). After treatment, the cells were stained with propidium iodide from the Muse Cell Cycle Assay Kit (Merck Millipore, Burlington, MA, USA), and the amount of cells in each phase of the cell cycle was determined using the Muse Cell Analyzer (Merck Millipore, Burlington, MA, USA). The experiment was independently repeated three times.

[22] = test system: AGS cells; test: MitoPotential assay (mitochondrial membrane depolarization); format: cell-based, human; conditions: 40 µg/mL, 5 h
Protocol: The AGS cells were seeded in a 12-well plate (1 × 10^5 cells/well) and incubated with compound 5 at concentrations of 1, 5, and 10 µg/mL; oxaliplatin at the concentration of 40 µg/mL; and DMSO (0.2%, v/v). After 5 h of exposure, the cells were stained with the Muse MitoPotential Assay Kit (Merck Millipore, Burlington, MA, USA) and analyzed with the Muse Cell Analyzer (Merck Millipore, Burlington, MA, USA). The percentage of depolarized live and dead cells was estimated in the experiments, which were independently repeated three times.

[23] = test system: caspase-8; test: Caspase-Glo 8 activity assay in AGS cells; format: cell-based, human; conditions: 20 µg/mL
Protocol: as §4

T1 sequence (P00772 27-266): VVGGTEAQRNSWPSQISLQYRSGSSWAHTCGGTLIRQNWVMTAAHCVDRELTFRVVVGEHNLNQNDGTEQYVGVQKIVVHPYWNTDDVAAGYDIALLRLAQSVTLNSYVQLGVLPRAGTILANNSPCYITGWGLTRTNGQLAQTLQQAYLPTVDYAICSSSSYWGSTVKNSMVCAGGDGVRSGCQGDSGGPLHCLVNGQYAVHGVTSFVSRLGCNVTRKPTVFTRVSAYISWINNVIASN

Row | Compound | MIC [1] [µg/mL] | MIC [2] [µg/mL] | MIC [3] [µg/mL] | MIC [4] [µg/mL] | MIC [5] [µg/mL] | MIC [6] [µg/mL] | MIC [7] [µg/mL] | MIC [8] [µg/mL] | MIC [9] [µg/mL] | MIC [10] [µg/mL] | MIC [11] [µg/mL] | IC50 ([12]; MTT, 24 h treatment) [µg/mL] | selectivity index AGS [12] | IC50 [13] [µg/mL] | IC50 ([14]; MTT, 24 h treatment) [µg/mL] | selectivity index HeLa [14] | IC50 [15] [µM] | % of DPPH radical inhibition [16] [%] | IC50 ([17]; MTT, 24 h treatment) [µg/mL] | selectivity index HL-60 [17] | other results
1 | CC1(C)S[C@@H]2[C@H](NC(=O)[C@H](N)c3ccccc3)C(=O)N2[C@H]1C(=O)O [ampicillin, reference compound] | 0.5 (≈ 1.43 µM) | 0.08 (≈ 0.229 µM) | 16 (≈ 45.8 µM) | 3.9 (≈ 11.2 µM) | 16 (≈ 45.8 µM) | 62.5 (≈ 179 µM) | 3.2 (≈ 9.16 µM) | 0.16 (≈ 0.458 µM) | 125 (≈ 358 µM) | 0.312 (≈ 0.894 µM) | 32 (≈ 91.6 µM) |  |  |  |  |  |  |  |  |  | 
2 | Cc1cc(S(=O)(=O)Nc2ccc(C(=O)/C=C/c3ccc(Cl)cc3)cc2)c(Cl)cc1Cl [Compound 7, (E)-2,4-Dichloro-N-{4-[3-(4-Chlorophenyl)acryloyl]phenyl}-5-Methylbenzenesulfonamide] | > 500 | > 500 | > 500 | > 500 | > 500 | > 500 | > 500 | > 500 | > 500 | > 500 | > 500 | < 1 | 19.08 | 29.9 ± 3.27 (≈ 62.3 µM) | 6.34 ± 0.04 (≈ 13.2 µM) | 4.72 | 53.3 | 18.70 ± 0.04 | < 1.57 | 20.51 | IC50 HL-60 ([17]; MTT, 24 h treatment): 1.46 ± 0.20 µg/mL (≈ 3.04 µM)
3 | Cc1ccc(/C=C/C(=O)c2ccc(NS(=O)(=O)c3cc(C)c(Cl)cc3Cl)cc2)cc1 [Compound 8, (E)-2,4-Dichloro-5-Methyl-N-{4-[3-(p-Tolyl)acryloyl]phenyl}benzenesulfonamide] | > 500 | > 500 | > 500 | > 500 | > 500 | > 500 | > 500 | > 500 | > 500 | > 500 | > 500 | 3.6 ± 0.33 (≈ 7.82 µM) | 7.72 | 27.8 ± 2.82 (≈ 60.4 µM) | 7.96 ± 0.37 (≈ 17.3 µM) | 3.50 | 55.9 | 0.32 ± 0.03 | 2.9 ± 0.17 (≈ 6.3 µM) | 9.58 | IC50 toward cancer cells [18]: weaker activity; protection of lipids oxidation / reduction of lipid peroxidation (in words) [19]: weaker properties
4 | Cc1cc(S(=O)(=O)Nc2ccc(C(=O)/C=C/c3ccc(F)cc3)cc2)c(Cl)cc1Cl [Compound 6, (E)-2,4-Dichloro-N-{4-[3-(4-Fluorophenyl)acryloyl]phenyl}-5-Methylbenzenesulfonamide] | > 500 | > 500 | > 500 | > 500 | > 500 | > 500 | > 500 | > 500 | > 500 | > 500 | > 500 | 4.49 ± 0.44 (≈ 9.67 µM) | 6.01 | 27 ± 2.29 (≈ 58.1 µM) | 8.65 ± 0.52 (≈ 18.6 µM) | 3.12 | 181 | 21.85 ± 0.22 | 1.69 ± 0.2 (≈ 3.64 µM) | 15.98 | IC50 toward cancer cells [18]: weaker activity
5 | O=C1[O][Pt]2([NH][C@@H]3CCCC[C@H]3[NH]2)[O]C1=O [Oxaliplatin, reference compound] |  |  |  |  |  |  |  |  |  |  |  |  |  |  |  |  |  |  |  |  | caspase-9 activity (in words) [20]: notable increase; amount of cells in subG0 phase (in words) [21]: significant increase; cells in G0/G1 phase [21]: 35.6%; cells in G2/M phase [21]: 32.4%; cells in S phase [21]: 14.2%; IC50 AGS ([12]; MTT, 24 h treatment): 17.90 ± 1.20 µg/mL; IC50 Fibroblasts [13]: 95.79 ± 3.24 µg/mL; IC50 HeLa ([14]; MTT, 24 h treatment): 35.76 ± 1.72 µg/mL; changes in percentages of live, depolarized, and dead cells versus control [22]: no observable changes; caspase-8 activity (in words) [23]: notable increase
